In data set [1] the target is T1, cellodextrin phosphorylase from Clostridium stercorarium (CsCDP) (Thermoclostridium stercorarium, UniProt L7VUB7). The experiment in a line: CsCDP activity assay (orthophosphate release, synthetic direction). Type of data set: biochemical. The note with it: for Specific activity (U/mg): acceptor specificity, 30 mM Glc1P donor; for Specific activity (U/mg) / Relative activity (%): 50 mM MES buffer pH 6.5, 50 mM of acceptor; for Relative activity (%): relative to cellobiose. On the procedure: (§1) Protein concentrations were measured with the BCA Protein Assay kit from Thermo Scientific. The activity assays were performed with 5% of purified enzyme (50 μg/mL, final concentration) in 50 mM MES buffer pH 6.5, containing 30 mM donor (Glc1P) or 100 mM donor (Gal1P) and 50 mM acceptor at 45° C. Samples were inactivated for 5 minutes at 95° C. before the amount of orthophosphate (Pi) was measured by the method of Gawronski and Benson, 2004. The Km and kcat values in the kinetic study were calculated from a Hanes-Woolf plot.

In data set [2] the target is T1, cellodextrin phosphorylase from Clostridium stercorarium (CsCDP). Description: Kinetic study of the synthetic reaction of CsCDP (Hanes-Woolf plot). In kind it is biochemical. The note with it: donor substrate instead of Glc1P. On the procedure:
as §1

The target is the same in data set [3]. The experiment in a line: CsCDP activity assay (orthophosphate release, synthetic direction). In kind it is biochemical. The note with it: 20 mM of acceptor, 45° C. and pH 6.5.
Substrate in data set [4]: O=P(O)(O)O[C@H]1O[C@H](CO)[C@H](O)[C@H](O)[C@H]1O
The experiment in a line: Kinetic study of the synthetic reaction of CsCDP (Hanes-Woolf plot). In kind it is biochemical, Clostridium stercorarium. The conditions noted are these: other: synthetic reaction, 50 mM MES buffer pH 6.5 at 45° C.

Substrate in data set [5]: O=[N+]([O-])c1ccc(O[C@@H]2O[C@H](CO)[C@@H](O)[C@H](O)[C@H]2O)cc1
Described as above. In kind it is biochemical, Clostridium stercorarium. The conditions noted are these: other: synthetic reaction, 50 mM MES buffer pH 6.5 at 45° C.

Substrate in data set [6]: CCCCCCCCO[C@@H]1O[C@H](CO)[C@@H](O)[C@H](O)[C@H]1O
Described as above. The note with it: other: synthetic reaction, 50 mM MES buffer pH 6.5 at 45° C. In kind it is biochemical, Clostridium stercorarium.

Substrate in data set [7]: O=P(O)(O)O[C@H]1O[C@H](CO)[C@@H](O)[C@H](O)[C@H]1O
Described as above. The note with it: other: synthetic reaction, 50 mM MES buffer pH 6.5 at 45° C. Type of data set: biochemical, Clostridium stercorarium.

“Also recorded” adds a separate entry of the source.

Consider `OC[C@H]1O[C@H](O[C@H]2[C@H](O)[C@@H](O)C(O)O[C@@H]2CO)[C@H](O)[C@@H](O)[C@@H]1O` (mixture of isomers) [Maltose], for which the “activity of CsCDP towards the substrate (in words)” value (“activity … (in words)” for short) in data set [1] is “very poor acceptors”. For the same molecule, in data set [1] (45° C.), the “Specific activity (U/mg)” value was 0.7 U/mg and the “Relative activity (%)” value stood at 3%.
As to `O=P(O)(O)O[C@H]1O[C@H](CO)[C@H](O)[C@H](O)[C@H]1O` [Gal1P, α-galactose-1-phosphate], in data set [1], the “activity … (in words)” value is reported as “active”. In addition, in data set [2], the “efficiency on Gal1P as donor, times lower than on Glc1P” value is reported as “about one thousand”.
On to `CCCCCCO[C@@H]1O[C@H](CO)[C@@H](O)[C@H](O)[C@H]1O` [Hexyl β-glucoside], for which, in data set [1] (45° C.), the “Specific activity (U/mg)” value came to 19.9 U/mg and the “Relative activity (%)” value is 89%.
Take `CO[C@@H]1O[C@H](CO)[C@@H](O)[C@H](O)[C@H]1O` [Methyl β-glucoside]: in data set [1] (45° C.), the “Specific activity (U/mg)” value came to 3.5 U/mg and the “Relative activity (%)” value was 16%.
Take `CCCCCCCCO[C@@H]1O[C@H](CO)[C@@H](O)[C@H](O)[C@H]1O` [Octyl β-glucoside]: in data set [1] (45° C.), the “Specific activity (U/mg)” value worked out at 20.4 U/mg and the “Relative activity (%)” value is listed as 91%.
Consider `O=[N+]([O-])c1ccc(O[C@@H]2O[C@H](CO)[C@@H](O[C@@H]3O[C@H](CO)[C@@H](O)[C@H](O)[C@H]3O)[C@H](O)[C@H]2O)cc1` [PNP β-cellobioside], for which, in data set [1] (45° C.), the “Specific activity (U/mg)” value was 29.0 U/mg and the “Relative activity (%)” value stood at 129%.
Taken in the same sequence, the figures for `O=[N+]([O-])c1ccc(O[C@@H]2O[C@H](CO)[C@@H](O)[C@H](O)[C@H]2O)cc1` [PNP β-glucoside, p-nitrophenyl beta-glucoside] were 24.7 U/mg and 110%.
On to `O=[N+]([O-])c1ccc(O[C@@H]2OC[C@@H](O)[C@H](O)[C@H]2O)cc1` [PNP β-xyloside], for which, in data set [1] (45° C.), the “Specific activity (U/mg)” value is recorded as 7.5 U/mg and the “Relative activity (%)” value worked out at 33%.
On to `OC[C@H]1O[C@@](CO)(O[C@H]2O[C@H](CO)[C@@H](O)[C@H](O)[C@H]2O)[C@@H](O)[C@@H]1O` [Sucrose], for which, in data set [1], the “activity … (in words)” value is “very poor acceptors”. Also, in data set [1] (45° C.), the “Specific activity (U/mg)” value was found to be 0.7 U/mg and the “Relative activity (%)” value came to 3%.
In the case of Lactose, the “activity … (in words)” value in data set [1] was “absolutely no activity could be detected; also recorded: inactive”.
Regarding cellobiose, in data set [1] (45° C.), the “Specific activity (U/mg)” value is reported as 22.4 U/mg and the “Relative activity (%)” value was 100%. For the same molecule, the “Activity (%) relative to the activity on cellobiose” value in data set [3] (donor 30 mM Glc1P) is 100%.
On to oleoyl β-glucoside, for which the “activity … (in words)” value in data set [1] was “better acceptors for CDP than cellobiose”. In addition, in data set [1] (45° C.), the “Specific activity (U/mg)” value came to 29.3 U/mg and the “Relative activity (%)” value is recorded as 131%. For the same molecule, in data set [3] (donor 30 mM Glc1P), the “Activity (%) relative to the activity on cellobiose” value worked out at 126%. The “Activity (%) relative to the activity on cellobiose” value in data set [3] (donor 100 mM Gal1P) is recorded as 11%.
As to oleoyl β-sophoroside [Sophorolipid], the “activity as fraction of that on cellobiose” value in data set [1] (Table 4) is on record as “about one third”. Moreover, in data set [3] (donor 30 mM Glc1P), the “Activity (%) relative to the activity on cellobiose” value is reported as 36%.

B1: CsCDP: recombinant cellodextrin phosphorylase from Clostridium stercorarium DSM8532, Genbank U60580 (protein, listed as Clostridium stercorarium)
chain: MRYGYFDEKAREYVITRPDTPTPWINYIGNGKYGGIVTNTGGGYSFHKDPQNRRITRYRYNNLPTDRPGRYIYVRDRLTGEYWNPGYQPVQRKLDSYRCRHGMGYTVLEGEYKGIAADVTYFVPDDRDFEIWLVQIRNLCHVERNLQVFSYAEFCFWDAIMDQQNVDWVQQINQGRYEDRLITWHPHHFKDACAFFATNAEINSFDTNLEAFIGRYRCESNPIAVETGACSNSVSYRMNGVGAFCIDVNLKPGEEREIIFILGFTENKSTIRDEIRDYLNVEYAKEALKRLKDSWEEYLDKLQIETPDRETNLFVNTWNQYQCKITFNWSRFVSMYSWGLGRGIGIRDSAQDTLGVMHSIPELAGGLIKRLIHCQYTDGRVYHLFFPLTGEGGIGDAPVVKFDWYSDDHLWLPIAANAYLKETANFDFFQSVVPYNDNKTEGTVWEHLNRAMEFTYNHRGPHALPYSRADWNDTLNLDMGNGIAETLFTSMLFSEPPLKRFRCRISDKRIATKYRYWYDEMKQAINEWCWDGEWYIRAFDDEGNVLGSGKNRYGKIFINSQSWAVLSMVAPEEYAKKCLESVYRHLNTKYGIVKVYPAYPEYNPKIGGMTTYPPGAKENGGIFAHTNPWVMIAECMMGNGRRAYQYYRQILPLTRNDDADLLEVEPYVYCQNILGKEHPQFGIGRNSWLTGTAAWNMVAVSQYILGIRPEYDGLTVDPCIPPDWKGFKVRRIFRGCVYNIEVRNPEGVRRCEKNCRRGVETDKIPVKPAGTVCECVVIMG
With B1, in data set [1] (50 mM cellobiose, 30 mM Glc1P, 50 mM MES buffer pH 6.5), the “optimal temperature for activity in the direction of glycoside synthesis” value is around 65 °C. The “optimal pH for activity in the direction of glycoside synthesis” value in data set [1] (50 mM cellobiose, 30 mM Glc1P, 50 mM MES buffer, 45° C.) was “around 6.5”. In data set [1] (His6-tagged purified CsCDP, cellobiose acceptor), the “specific activity of the purified enzyme” value is reported as 22.4 U/mg.

B2: cellodextrin phosphorylase from Clostridium stercorarium (CsCDP) (Thermoclostridium stercorarium subsp. stercorarium DSM 8532) (protein)
chain: MRYGYFDEKAREYVITRPDTPTPWINYIGNGKYGGIVTNTGGGYSFHKDPQNRRITRYRYNNLPTDRPGRYIYVRDRLTGEYWNPGYQPVQRKLDSYRCRHGMGYTVLEGEYKGIAADVTYFVPDDRDFEIWLVQIRNLCHVERNLQVFSYAEFCFWDAIMDQQNVDWVQQINQGRYEDRLITWHPHHFKDACAFFATNAEINSFDTNLEAFIGRYRCESNPIAVETGACSNSVSYRMNGVGAFCIDVNLKPGEEREIIFILGFTENKSTIRDEIRDYLNVEYAKEALKRLKDSWEEYLDKLQIETPDRETNLFVNTWNQYQCKITFNWSRFVSMYQLGLGRGIGIRDSAQDTLGVMHSIPELAGGLIKRLIHCQYTDGRVYHLFFPLTGEGGIGDAPVVKFDWYSDDHLWLPIAANAYLKETANFDFLESVVPYNDNKTEGTVWEHLNRAMEFTYNHRGPHGLALIGRADWNDTLNLDMGNGIAESVFTSMLFCRAALEMIQMAEYTGQKDLATKYRYWYDEMKKAINEWCWDGEWYIRAFDDEGNVLGSGKNRYGKIFINSQSWAVLSMVAPEEYAKKCLESVYRHLNTKYGIVKVYPAYPEYNPKIGGMTTYPPGAKENGGIFAHTNPWVMIAECMMGNGRRAYQYYRQILPLTRNDDADLLEVEPYVYCQNILGKEHPQFGIGRNSWLTGTAAWNMVAVSQYILGIRPEYDGLTVDPCIPPDWKGFKVRRIFRGCVYNIEVRNPEGVSRGVKKIVVDGVETDKIPVKPAGTVCECVVIMG
Take B2: the Michaelis-Menten constant (Km) came to 31130 ± 683 µM in data set [4], 640 ± 38 µM in data set [5], 623 ± 26 µM in data set [6] and 2438 ± 16 µM in data set [7]. In addition, the kcat turned out to be 2.5 ± 0.1 s⁻¹ in data set [4], 19.6 ± 1 s⁻¹ in data set [5], 14.2 ± 0.5 s⁻¹ in data set [6] and 27.4 ± 1.7 s⁻¹ in data set [7]. In addition, the kcat/Km in data set [4] came out at 100 M⁻¹ s⁻¹; in data set [5] it was 30000 M⁻¹ s⁻¹; in data set [6], 20000 M⁻¹ s⁻¹; in data set [7] it was 10000 M⁻¹ s⁻¹.

The record behind these values is patent publication US8889379B2, “Biocatalytic production of glycosides” (Universiteit Gent, priority 2010, dated 2014).
